Measurements from ChEMBL document CHEMBL5584246, “Novel dihydropyrimidines as promising EGFR & HER2 inhibitors: Insights from experimental and computational studies” (Eur J Med Chem, 2024).
pIC50: −log10 of the molar value.

Columns and labels:
MCF7 = assay: Cytotoxicity against human MCF7 cells assessed as inhibition of cell growth measured after 3 days by MTT assay; assay type: functional, cell-based; conditions: MCF7, 72 h
[1] = Cytotoxicity against African green monkey Vero cells assessed as inhibition of cell growth measured after 3 days by MTT assay; assay type: toxicity, cell-based; conditions: African green monkey (Chlorocebus sabaeus)
[2] = Inhibition of HER2 expression in human MCF7 cells assessed as positive expression region (M2) at 25 nM incubated for 24 hrs by flow cytometry analysis (reference value: 99.09%); assay type: functional
[3] = Inhibition of EGFR expression in human MCF7 cells assessed as negative expression region (M1) at 50 nM incubated for 24 hrs by flow cytometry analysis (reference value: 0.66%); assay type: functional
[4] = Inhibition of EGFR expression in human MCF7 cells assessed as negative expression region (M1) at 100 nM incubated for 24 hrs by flow cytometry analysis (reference value: 0.66%); assay type: functional
[5] = Inhibition of HER2 expression in human MCF7 cells assessed as positive expression region (M2) at 1000 nM incubated for 24 hrs by flow cytometry analysis (reference value: 99.09%); assay type: functional
[6] = Inhibition of EGFR expression in human MCF7 cells assessed as negative expression region (M1) at 500 nM incubated for 24 hrs by flow cytometry analysis (reference value: 0.66%); assay type: functional
[7] = Inhibition of HER2 expression in human MCF7 cells assessed as negative expression region (M1) at 50 nM incubated for 24 hrs by flow cytometry analysis (reference value: 0.98%); assay type: functional
[8] = biological target: Epidermal growth factor receptor (Homo sapiens, UniProt P00533); assay: Inhibition of wild type EGFR (unknown origin) incubated for 40 mins in presence of ATP by kinase glo max assay
[9] = Inhibition of EGFR expression in human MCF7 cells assessed as positive expression region (M2) at 25 nM incubated for 24 hrs by flow cytometry analysis (reference value: 99.36%); assay type: functional
[10] = Inhibition of EGFR expression in human MCF7 cells assessed as positive expression region (M2) at 1000 nM incubated for 24 hrs by flow cytometry analysis (reference value: 99.36%); assay type: functional
[11] = Inhibition of HER2 expression in human MCF7 cells assessed as negative expression region (M1) at 500 nM incubated for 24 hrs by flow cytometry analysis (reference value: 0.98%); assay type: functional
[12] = Inhibition of HER2 expression in human MCF7 cells assessed as negative expression region (M1) at 1000 nM incubated for 24 hrs by flow cytometry analysis (reference value: 0.98%); assay type: functional
[13] = Inhibition of HER2 expression in human MCF7 cells assessed as positive expression region (M2) at 50 nM incubated for 24 hrs by flow cytometry analysis (reference value: 99.09%); assay type: functional
[14] = Inhibition of HER2 expression in human MCF7 cells assessed as positive expression region (M2) at 500 nM incubated for 24 hrs by flow cytometry analysis (reference value: 99.09%); assay type: functional
[15] = Inhibition of HER2 expression in human MCF7 cells assessed as positive expression region (M2) at 100 nM incubated for 24 hrs by flow cytometry analysis (reference value: 99.09%); assay type: functional
[16] = Inhibition of EGFR expression in human MCF7 cells assessed as negative expression region (M1) at 25 nM incubated for 24 hrs by flow cytometry analysis (reference value: 0.66%); assay type: functional
[17] = Inhibition of HER2 expression in human MCF7 cells assessed as negative expression region (M1) at 25 nM incubated for 24 hrs by flow cytometry analysis (reference value: 0.98%); assay type: functional
[18] = Inhibition of EGFR expression in human MCF7 cells assessed as positive expression region (M2) at 500 nM incubated for 24 hrs by flow cytometry analysis (reference value: 99.36%); assay type: functional
[19] = Inhibition of HER2 expression in human MCF7 cells assessed as negative expression region (M1) at 100 nM incubated for 24 hrs by flow cytometry analysis (reference value: 0.98%); assay type: functional
[20] = Inhibition of EGFR expression in human MCF7 cells assessed as negative expression region (M1) at 1000 nM incubated for 24 hrs by flow cytometry analysis (reference value: 0.66%); assay type: functional
[21] = Inhibition of EGFR expression in human MCF7 cells assessed as positive expression region (M2) at 100 nM incubated for 24 hrs by flow cytometry analysis (reference value: 99.36%); assay type: functional
[22] = Inhibition of EGFR expression in human MCF7 cells assessed as positive expression region (M2) at 50 nM incubated for 24 hrs by flow cytometry analysis (reference value: 99.36%); assay type: functional

Epidermal growth factor receptor, sequence (P00533 whole entry): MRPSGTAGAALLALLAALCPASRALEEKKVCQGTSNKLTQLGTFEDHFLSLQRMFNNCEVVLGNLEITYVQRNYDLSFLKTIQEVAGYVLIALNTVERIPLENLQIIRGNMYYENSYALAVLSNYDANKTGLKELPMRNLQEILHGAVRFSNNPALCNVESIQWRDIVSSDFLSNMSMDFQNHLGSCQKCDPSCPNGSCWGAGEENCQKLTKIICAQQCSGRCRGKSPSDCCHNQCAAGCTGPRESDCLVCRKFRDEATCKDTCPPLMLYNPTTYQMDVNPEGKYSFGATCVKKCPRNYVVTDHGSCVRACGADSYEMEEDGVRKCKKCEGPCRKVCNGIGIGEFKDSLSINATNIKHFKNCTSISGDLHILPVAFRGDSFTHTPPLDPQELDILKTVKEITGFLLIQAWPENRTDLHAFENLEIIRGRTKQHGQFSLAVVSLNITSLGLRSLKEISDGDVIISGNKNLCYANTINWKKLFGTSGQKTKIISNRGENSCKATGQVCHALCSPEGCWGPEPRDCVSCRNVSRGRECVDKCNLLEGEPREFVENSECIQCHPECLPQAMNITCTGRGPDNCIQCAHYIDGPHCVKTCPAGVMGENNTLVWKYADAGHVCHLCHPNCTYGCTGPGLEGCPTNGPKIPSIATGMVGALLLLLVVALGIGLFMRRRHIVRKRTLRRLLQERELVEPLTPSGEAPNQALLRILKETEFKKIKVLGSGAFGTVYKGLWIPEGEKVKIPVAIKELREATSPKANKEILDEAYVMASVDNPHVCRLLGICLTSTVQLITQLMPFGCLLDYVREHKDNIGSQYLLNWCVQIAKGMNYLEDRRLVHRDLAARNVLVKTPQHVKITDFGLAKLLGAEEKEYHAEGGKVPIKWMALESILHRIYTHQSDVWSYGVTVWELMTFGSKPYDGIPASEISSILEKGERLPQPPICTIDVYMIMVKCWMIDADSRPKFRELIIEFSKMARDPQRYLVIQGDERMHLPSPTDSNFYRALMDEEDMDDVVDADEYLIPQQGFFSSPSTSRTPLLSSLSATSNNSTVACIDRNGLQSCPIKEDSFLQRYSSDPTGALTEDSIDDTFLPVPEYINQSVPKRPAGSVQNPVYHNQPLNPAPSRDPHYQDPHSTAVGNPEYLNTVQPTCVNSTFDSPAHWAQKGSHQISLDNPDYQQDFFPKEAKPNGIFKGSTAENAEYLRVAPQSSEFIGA

Which results are given for COc1ccc(NC(=O)C2=C(C)NC(=O)NC2c2ccco2)c(OC)c1 (centres undefined)?
pIC50 (MCF7): 4.56; IC50 at 3 days [1]: 62.4 µM

With COc1ccc(NC(=O)C2=C(C)NC(=S)NC2c2cccc(O)c2)c(OC)c1 (centres undefined) as the compound, how does the pIC50 (MCF7) read?
The pIC50 was 4.46.

What about the IC50 at 3 days [1] of the same compound?
The IC50 at 3 days was 69.2 µM.

Which inhibition at 0.025 µM [2] does the source give for COc1ccc(NC(=O)C2=C(C)NC(=S)NC2c2ccc(OCc3ccccc3)c(OC)c2)c(OC)c1 (centres undefined) here?
Its inhibition at 0.025 µM is 85.5%.

And the inhibition at 0.05 µM [3]?
Its inhibition at 0.05 µM is 62.4%.

And the inhibition at 0.1 µM [4]?
The inhibition at 0.1 µM was 80.5%.

And the inhibition at 1 µM [5]?
The inhibition at 1 µM was 7.42%.

And the inhibition at 0.5 µM [6]?
Its inhibition at 0.5 µM is 83.2%.

What about the inhibition at 0.05 µM [7] of the same compound?
The inhibition at 0.05 µM was 42.6%.

What about the pIC50 [8] of the same compound?
The pIC50 was 7.11.

And the inhibition at 0.025 µM [9]?
Its inhibition at 0.025 µM is 68.7%.

And the inhibition at 1 µM [10]?
Its inhibition at 1 µM is 4.17%.

And the inhibition at 0.5 µM [11]?
Its inhibition at 0.5 µM is 78.4%.

What about the inhibition at 1 µM [12] of the same compound?
The inhibition at 1 µM was 92.7%.

And the inhibition at 0.05 µM [13]?
Its inhibition at 0.05 µM is 57.8%.

What about the inhibition at 0.5 µM [14] of the same compound?
Its inhibition at 0.5 µM is 22.3%.

And the inhibition at 0.1 µM [15]?
The inhibition at 0.1 µM was 28.3%.

And the pIC50 (MCF7)?
Its pIC50 is 4.77.

What about the inhibition at 0.025 µM [16] of the same compound?
Its inhibition at 0.025 µM is 32.1%.

What about the inhibition at 0.025 µM [17] of the same compound?
Its inhibition at 0.025 µM is 14.9%.

What about the IC50 at 3 days [1] of the same compound?
The IC50 at 3 days was 52.9 µM.

And the inhibition at 0.5 µM [18]?
The inhibition at 0.5 µM was 17.4%.

What about the inhibition at 0.1 µM [19] of the same compound?
Its inhibition at 0.1 µM is 72.1%.

What about the inhibition at 1 µM [20] of the same compound?
Its inhibition at 1 µM is 96%.

And the inhibition at 0.1 µM [21]?
Its inhibition at 0.1 µM is 20.1%.

What about the inhibition at 0.05 µM [22] of the same compound?
Its inhibition at 0.05 µM is 38.4%.

With COc1ccc(NC(=O)C2=C(C)NC(=O)NC2/C=C\c2ccccc2)c(OC)c1 (centres undefined) as the compound, how does the pIC50 (MCF7) read?
Its pIC50 is 4.71.

And the IC50 at 3 days [1]?
Its IC50 at 3 days is 30.4 µM.

Which results are given for COc1ccc(NC(=O)C2=C(C)NC(=O)NC2c2cccc(Cl)c2)c(OC)c1 (centres undefined)?
pIC50 (MCF7): 4.42; IC50 at 3 days [1]: 73.4 µM

For CS(=O)(=O)CCNCc1ccc(-c2ccc3ncnc(Nc4ccc(OCc5cccc(F)c5)c(Cl)c4)c3c2)o1 [LAPATINIB], which inhibition at 0.1 µM [4] is on record?
The inhibition at 0.1 µM was 94.3%.

What about the inhibition at 0.1 µM [15] of the same compound?
Its inhibition at 0.1 µM is 7.15%.

What about the pIC50 (MCF7) of the same compound?
The pIC50 was 5.47.

What about the IC50 at 3 days [1] of the same compound?
Its IC50 at 3 days is 19.3 µM.

And the inhibition at 0.1 µM [19]?
Its inhibition at 0.1 µM is 93%.

And the inhibition at 0.1 µM [21]?
Its inhibition at 0.1 µM is 5.88%.

With COc1ccc(NC(=O)C2=C(C)NC(=O)NC2c2cccc(O)c2)c(OC)c1 (centres undefined) as the compound, how does the pIC50 (MCF7) read?
The pIC50 was 4.52.

And the IC50 at 3 days [1]?
The IC50 at 3 days was 55.7 µM.

With COc1ccc(NC(=O)C2=C(C)NC(=S)NC2c2ccco2)c(OC)c1 (centres undefined) as the compound, how does the pIC50 (MCF7) read?
Its pIC50 is 4.42.

What about the IC50 at 3 days [1] of the same compound?
Its IC50 at 3 days is 45.5 µM.

Which results are given for COc1ccc(NC(=O)C2=C(C)NC(=O)NC2c2ccc(OC)c(OC)c2)c(OC)c1 (centres undefined)?
inhibition at 0.025 µM [2]: 67.9%; inhibition at 0.05 µM [3]: 40.2%; inhibition at 0.1 µM [4]: 68.3%; inhibition at 1 µM [5]: 6.78%; inhibition at 0.5 µM [6]: 94.4%; inhibition at 0.05 µM [7]: 63.8%; pIC50 [8]: 7.16; inhibition at 0.025 µM [9]: 82.2%; inhibition at 1 µM [10]: 3.42%; inhibition at 0.5 µM [11]: 89.9%; inhibition at 1 µM [12]: 93.4%; inhibition at 0.05 µM [13]: 36.8%; inhibition at 0.5 µM [14]: 10.3%; inhibition at 0.1 µM [15]: 21%; pIC50 (MCF7): 4.85; inhibition at 0.025 µM [16]: 18.1%; inhibition at 0.025 µM [17]: 32.7%; IC50 at 3 days [1]: 30.1 µM; inhibition at 0.5 µM [18]: 5.73%; inhibition at 0.1 µM [19]: 79.3%; inhibition at 1 µM [20]: 96.7%; inhibition at 0.1 µM [21]: 32.5%; inhibition at 0.05 µM [22]: 60%

What does the source list for COc1ccc(NC(=O)C2=C(C)NC(=O)NC2c2cccc(Br)c2)c(OC)c1 (centres undefined)?
pIC50 (MCF7): 4.51; IC50 at 3 days [1]: 48.1 µM

With COc1ccc(NC(=O)C2=C(C)NC(=S)NC2c2ccc(Br)cc2)c(OC)c1 (centres undefined) as the compound, how does the pIC50 (MCF7) read?
The pIC50 was 4.43.

And the IC50 at 3 days [1]?
The IC50 at 3 days was 61.2 µM.

Which results are given for COc1ccc(NC(=O)C2=C(C)NC(=O)NC2c2ccc(Cl)cc2Cl)c(OC)c1 (centres undefined)?
pIC50 (MCF7): 4.49; IC50 at 3 days [1]: 63.5 µM

What does the source list for COc1ccc(NC(=O)C2=C(C)NC(=S)NC2c2ccc(N(C)C)cc2)c(OC)c1 (centres undefined)?
pIC50 (MCF7): 4.60; IC50 at 3 days [1]: 53.1 µM

With COc1ccc(NC(=O)C2=C(C)NC(=S)NC2c2ccc(Cl)cc2)c(OC)c1 (centres undefined) as the compound, how does the pIC50 (MCF7) read?
The pIC50 was 4.41.

And the IC50 at 3 days [1]?
The IC50 at 3 days was 48.3 µM.

With COc1ccc(NC(=O)C2=C(C)NC(=O)NC2c2ccccc2O)c(OC)c1 (centres undefined) as the compound, how does the pIC50 (MCF7) read?
The pIC50 was 4.52.

What about the IC50 at 3 days [1] of the same compound?
The IC50 at 3 days was 45.3 µM.

With COc1ccc(NC(=O)C2=C(C)NC(=O)NC2c2ccc(O)c(OC)c2)c(OC)c1 (centres undefined) as the compound, how does the pIC50 (MCF7) read?
The pIC50 was 4.79.

What about the IC50 at 3 days [1] of the same compound?
Its IC50 at 3 days is 42.9 µM.

With COc1ccc(NC(=O)C2=C(C)NC(=O)NC2c2ccc(C)cc2)c(OC)c1 (centres undefined) as the compound, how does the pIC50 (MCF7) read?
The pIC50 was 4.47.

And the IC50 at 3 days [1]?
The IC50 at 3 days was 60 µM.

What does the source list for COc1ccc(NC(=O)C2=C(C)NC(=S)NC2c2c[nH]c3ccccc23)c(OC)c1 (centres undefined)?
pIC50 (MCF7): 4.53; IC50 at 3 days [1]: 50.3 µM

With COc1ccc(NC(=O)C2=C(C)NC(=O)NC2c2ccc(O)cc2)c(OC)c1 (centres undefined) as the compound, how does the pIC50 (MCF7) read?
Its pIC50 is 4.53.

And the IC50 at 3 days [1]?
The IC50 at 3 days was 55.2 µM.
